These compounds were tested on Plasmodium falciparum (assay: Antimalarial activity against chloroquine-resistant, mefloquine-sensitive Plasmodium falciparum W2).
Type: functional
With `CCC1(CC)OO[C@]23CCCCC2[C@@H](C)C(=O)OC3O1` (stereo partly specified) the “Log RA” value was -0.6.
For `C[C@@H]1CC[C@@H]2[C@@H](C)CO[C@@H]3C[C@]4(C)CC[C@@H]1[C@]23OO4`, the “Log RA” value was -0.24.
For `CC1(C)C[C@]2(c3ccccc3)CC[C@@](c3ccccc3)(C1)OO2`, the “Log RA” value was -2.17.
For `CCOC(=O)C[C@H](O[C@H]1O[C@@H]2O[C@@]3(C)CC[C@H]4[C@H](C)CC[C@@H]([C@H]1C)[C@@]24OO3)c1ccccc1`, the “Log RA” value was 0.9.
`CCC[C@H]1C(=O)O[C@@H]2O[C@@]3(C)CC[C@H]4[C@H](C)CC[C@@H]1[C@@]24OO3` was tested, and the “Log RA” value was 1.13.
`C[C@@H]1CC[C@H]2CCO[C@@H]3O[C@@]4(CCCCc5ccccc5)CC[C@@H]1[C@@]23OO4` was tested, and the “Log RA” value was 0.58.
In the case of `C[C@@H]1CC[C@H]2CCO[C@@H]3O[C@@]4(C)CC[C@@H]1[C@@]23OO4`, the “Log RA” value is reported as 0.28.
For `C[C@@H]1CC[C@H]2CCO[C@@H]3O[C@@]4(CCc5ccccc5)CC[C@@H]1[C@@]23OO4`, the “Log RA” value was -1.7.
With `CCCC[C@H]1CO[C@@H]2O[C@@]3(C)CC[C@H]4[C@H](C)CC[C@@H]1[C@@]24OO3` the “Log RA” value was 1.32.
For `C[C@@H]1CC[C@H]2CC(=O)N(Cc3ccc(Cl)cc3)[C@@H]3O[C@@]4(C)CC[C@@H]1[C@@]23OO4`, the “Log RA” value was -0.16.
In the case of `CO[C@H]1O[C@@]2(C)CC[C@H]3CCC[C@@H](CCOCc4ccccc4)[C@]31OO2`, the “Log RA” value is reported as 0.75.
For `CO[C@H]1O[C@]2(C)OO[C@]13[C@H](CCO)CCC[C@@H]3CC2(C)C`, the “Log RA” value was -1.8.
In the case of `C[C@@H]1CC[C@H]2[C@@H](C)C(CCCO)O[C@@H]3O[C@@]4(C)CC[C@@H]1[C@]32OO4` (stereo partly specified), the “Log RA” value is reported as 0.78.
For `CCOC(=O)CC[C@@]12CC[C@H]3[C@H](C)CC[C@H]4CC(=O)O[C@H](O1)[C@]43OO2`, the “Log RA” value was 0.37.
In the case of `C[C@@H]1CC[C@H]2CC(=O)O[C@@H]3O[C@@]4(CCCCc5ccccc5)CC[C@@H]1[C@@]23OO4`, the “Log RA” value is reported as 0.45.
In the case of `CC[C@@]12CC[C@H]3[C@H](C)CC[C@H]4CC(=O)O[C@H](O1)[C@]43OO2`, the “Log RA” value is reported as 0.05.
In the case of `CCCC(=O)OCC(CC)(CC)OOC(C)(C)C`, the “Log RA” value is reported as -4.
In the case of `CC1(C)OO[C@]23CCCCC2CC(=O)OC3O1` (stereo partly specified), the “Log RA” value is reported as -2.237.
In the case of `C[C@@H]1CCC[C@@]23CO[C@@](C)(CC[C@@H]12)OO3`, the “Log RA” value is reported as -0.32.
`CC(C)CCN1C(=O)C[C@@H]2CC[C@@H](C)[C@@H]3CC[C@@]4(C)OO[C@@]23[C@H]1O4` was tested, and the “Log RA” value was -0.04.
In the case of `CC(C)C[C@@]12CC[C@H]3[C@H](C)CC[C@H]4CC(=O)O[C@H](O1)[C@]43O2`, the “Log RA” value is reported as -4.
With `COC(=O)[C@H](C)COC1O[C@@H]2O[C@@]3(C)CC[C@H]4[C@H](C)CC[C@@H]([C@H]1C)[C@@]24OO3` (stereo partly specified) the “Log RA” value was 2.25.
With `COC(=O)[C@@H](C)COC1O[C@@H]2O[C@@]3(C)CC[C@H]4[C@H](C)CC[C@@H]([C@H]1C)[C@@]24OO3` (stereo partly specified) the “Log RA” value was 1.79.
In the case of `CCN(CC)C(=O)c1ccc(C(=O)OCC[C@@H]2CCC[C@@H]3CC[C@@]4(C)OO[C@]32[C@@H](OC)O4)cc1`, the “Log RA” value is reported as 0.23.
In the case of `CO[C@H]1O[C@@]2(C)CC[C@H]3CCC[C@@H](CCOC(=O)c4ccc(C(=O)O)cc4)[C@]31OO2`, the “Log RA” value is reported as -0.81.
`C[C@@H]1CC[C@@H]2[C@]34OO[C@](C)(CC[C@@H]13)O[C@H]4OC(Nc1ccccc1)[C@@]2(C)Br` (stereo partly specified) was tested, and the “Log RA” value was 0.18.
In the case of `C[C@@H]1CC[C@H]2[C@@H](C)C(OC(C)(C)C)O[C@@H]3O[C@@]4(C)CC[C@@H]1[C@]32OO4` (stereo partly specified), the “Log RA” value is reported as 0.92.
For `C[C@@H]1CC[C@@H]2[C@]34OO[C@](C)(CC[C@@H]13)O[C@H]4OC(Nc1ccccn1)[C@@]2(C)Br` (stereo partly specified), the “Log RA” value was -0.09.
For `COC(=O)c1ccc(C(=O)OCC[C@@H]2CCC[C@@H]3CC[C@@]4(C)OO[C@]32[C@@H](OC)O4)cc1`, the “Log RA” value was 0.27.
With `CO[C@H]1O[C@@]2(C)CC[C@H]3CCC[C@@H](CCOCc4c(C)noc4C)[C@]31OO2` the “Log RA” value was 0.58.
In the case of `C[C@@H]1CC[C@H]2[C@@H](C)C(CC(F)F)O[C@@H]3O[C@@]4(C)CC[C@@H]1[C@]32OO4` (stereo partly specified), the “Log RA” value is reported as 0.11.
With `CO[C@@H]1O[C@@]2(C)CC[C@H]3CCC[C@@H](CCOC(=O)N(C)C)[C@]31OO2` the “Log RA” value was 0.33.
For `C[C@@H]1CC[C@H]2CC(=O)O[C@@H]3O[C@H]4CC[C@@H]1[C@@]23OO4`, the “Log RA” value was -2.76.
With `CCN(CC)C(=O)OCC[C@@H]1CCC[C@@H]2CC[C@@]3(C)OO[C@]21[C@H](OC)O3` the “Log RA” value was 0.65.
With `C=C1C(O)O[C@@H]2O[C@@]3(C)CC[C@H]4[C@H](C)CC[C@@H]1[C@@]24OO3` (stereo partly specified) the “Log RA” value was -2.39.
`COC(=O)c1ccccc1S(=O)(=O)OCC[C@@H]1CCC[C@@H]2CC[C@@]3(C)OO[C@]21[C@@H](OC)O3` was tested, and the “Log RA” value was -0.87.
With `C[C@@H]1CC[C@H]2[C@](C)(O)[C@H](O)O[C@@H]3O[C@@]4(C)CC[C@@H]1[C@]32OO4` the “Log RA” value was -0.89.
`C[C@@H]1CC[C@H]2CC(=O)O[C@@H]3O[C@@]4(CCc5ccccc5)CC[C@@H]1[C@@]23O4` was tested, and the “Log RA” value was -4.
In the case of `C[C@@H]1CC[C@H]2[C@@H](C)C(CC(C)(F)F)O[C@@H]3O[C@@]4(C)CC[C@@H]1[C@]32OO4` (stereo partly specified), the “Log RA” value is reported as -0.17.
For `CCO[C@H]1O[C@@H]2O[C@@]3(C)CC[C@H]4C(C)C(=O)C[C@@H]([C@H]1C)[C@@]24OO3` (stereo partly specified), the “Log RA” value was 0.16.
For `C[C@@H]1CC[C@@H]2[C@]34OO[C@](C)(CC[C@@H]13)O[C@H]4OC(O)[C@@]21CO1` (stereo partly specified), the “Log RA” value was -0.62.
In the case of `C[C@@H]1CC[C@H]2[C@@H](C)C(=O)N[C@@H]3O[C@@]4(C)CC[C@@H]1[C@]32O4`, the “Log RA” value is reported as -4.
`C[C@@H]1CC[C@H]2[C@@H](C)C(=O)N(c3ccco3)[C@@H]3O[C@@]4(C)CC[C@@H]1[C@@]23OO4` was tested, and the “Log RA” value was 0.11.
With `CC[C@@]12CC[C@H]3[C@H](C)CC[C@H]4CC(=O)O[C@H](O1)[C@]43O2` the “Log RA” value was -4.
`C[C@@H]1CC[C@H]2[C@@H](C)C(=O)N(Cc3ccccn3)[C@@H]3O[C@@]4(C)CC[C@@H]1[C@@]23OO4` was tested, and the “Log RA” value was 1.46.
`C[C@@H]1CC[C@H]2[C@@H](CCCCc3ccccc3)C(=O)O[C@@H]3O[C@@]4(C)CC[C@@H]1[C@]32O4` was tested, and the “Log RA” value was -4.
With `C[C@@H]1CC[C@H]2[C@@H](C)C(=O)N(c3cccs3)[C@@H]3O[C@@]4(C)CC[C@@H]1[C@@]23OO4` the “Log RA” value was 0.17.
For `C[C@@H]1CC[C@H]2[C@@H](CCc3ccccc3)C(=O)O[C@@H]3O[C@@]4(C)CC[C@@H]1[C@]32OO4`, the “Log RA” value was 0.12.
In the case of `CCC[C@H]1C(=O)O[C@@H]2O[C@@]3(C)CC[C@H]4[C@H](C)CC[C@@H]1[C@@]24O3`, the “Log RA” value is reported as -4.
With `CCOC1O[C@@H]2O[C@@]3(C)CC[C@H]4[C@H](C)CC[C@@H]([C@H]1CC)[C@@]24OO3` (stereo partly specified) the “Log RA” value was 0.5.
For `CCOC1C[C@@H]2CC[C@@H](C)[C@@H]3CC[C@@]4(C)OO[C@@]23[C@H](O1)O4` (stereo partly specified), the “Log RA” value was 0.43.
`CCOC1O[C@@H]2O[C@@]3(C)CC[C@H]4[C@H](C)CC[C@H]([C@@]24OO3)[C@@]1(C)O` (stereo partly specified) was tested, and the “Log RA” value was -1.13.
`CCOC1O[C@@H]2O[C@@]3(C)CC[C@H]4[C@H](C)CC[C@H]([C@@]24OO3)[C@]1(C)O` (stereo partly specified) was tested, and the “Log RA” value was -0.44.
In the case of `C=CCN1C(=O)[C@H](C)[C@@H]2CC[C@@H](C)[C@@H]3CC[C@@]4(C)OO[C@]32[C@H]1O4`, the “Log RA” value is reported as -0.04.
For `C[C@@H]1CC[C@@H]2[C@]34OO[C@](C)(CC[C@@H]13)O[C@H]4OC(=O)[C@@]21CCC1C[Si](C)(C)C` (stereo partly specified), the “Log RA” value was -1.24.
In the case of `CC(C)CC[C@H]1C(=O)O[C@@H]2O[C@@]3(C)CC[C@H]4[C@H](C)CC[C@@H]1[C@@]24O3`, the “Log RA” value is reported as -4.
With `C[C@@H]1CC[C@H]2[C@@H](C)CO[C@@H]3O[C@@]4(C)CC[C@@H]1[C@]32O4` the “Log RA” value was -4.
In the case of `C[C@@H]1CC[C@H]2[C@@H](C)C(=O)N(C)[C@@H]3O[C@@]4(C)CC[C@@H]1[C@@]23OO4`, the “Log RA” value is reported as 0.43.
For `CO[C@@H]1O[C@@]2(C)CC[C@H]3CCCC[C@]31OO2`, the “Log RA” value was -1.04.
`CCO[C@H]1O[C@@H]2O[C@@]3(C)CC[C@H]4C(C)=C(F)C[C@@H]([C@H]1C)[C@@]24OO3` was tested, and the “Log RA” value was -0.12.
In the case of `C[C@@H]1CC[C@H]2CC(=O)N(CCc3ccccc3)[C@@H]3O[C@@]4(C)CC[C@@H]1[C@@]23OO4`, the “Log RA” value is reported as 0.16.
`CCO[C@@H]1O[C@@H]2O[C@@]3(C)CC[C@H]4[C@H](C)CC[C@@H]([C@H]1C)[C@@]24OO3` was tested, and the “Log RA” value was 0.32.
For `CO[C@H]1O[C@@]2(C)CC[C@H]3CCC[C@@H](CCOCc4ccc(-c5ccccc5)cc4)[C@]31OO2`, the “Log RA” value was 0.32.
In the case of `C[C@H]1[C@@H](O)O[C@@H]2O[C@@]3(C)CC[C@H]4[C@H](C)CC[C@@H]1[C@@]24O3`, the “Log RA” value is reported as -4.
In the case of `C[C@@H]1CC[C@@H]2[C@]34OO[C@](C)(CC[C@@H]13)O[C@H]4OC(=O)[C@@]21CO1`, the “Log RA” value is reported as -2.09.
With `C[C@@H]1CC[C@H]2[C@@H](C)CO[C@H]3C[C@]4(C)CC[C@@H]1[C@@]32OO4` the “Log RA” value was -2.59.
In the case of `CO[C@H]1O[C@@]2(C)CC[C@H]3CCCC[C@]31OO2`, the “Log RA” value is reported as -0.31.
With `C[C@@H]1CC[C@H]2CC(=O)O[C@@H]3O[C@@]4(CCc5ccccc5)CC[C@@H]1[C@@]23OO4` the “Log RA” value was -2.
For `CCCC[C@H]1C(=O)O[C@@H]2O[C@@]3(CCC(=O)OCC)CC[C@H]4[C@H](C)CC[C@@H]1[C@@]24OO3`, the “Log RA” value was -1.36.
In the case of `CC(C)C[C@@]12CC[C@H]3[C@H](C)CC[C@H]4CC(=O)O[C@H](O1)[C@]43OO2`, the “Log RA” value is reported as -0.35.
`CCCC[C@@]12CC[C@H]3[C@H](C)CC[C@H]4CC(=O)O[C@H](O1)[C@]43OO2` was tested, and the “Log RA” value was -0.74.
